{
  "source": "patent US6287813A",
  "about": "“Antibiotic-based gene regulation system” (Cistronics Cell Technology GmbH, priority 1999, dated 2001)",
  "key": {"[1]": {"target": "T1, TET-responsive system (tTA/PhCMV*-1) (Escherichia coli, UniProt P04483)", "T1 construct": "expressed in transfected cells; host or cells: CHO-K1 clones CHO-TWIN195 and CHO-TWIN1108 (pTWIN1)", "T1 sequence (P04483 whole entry, added parts left off)": "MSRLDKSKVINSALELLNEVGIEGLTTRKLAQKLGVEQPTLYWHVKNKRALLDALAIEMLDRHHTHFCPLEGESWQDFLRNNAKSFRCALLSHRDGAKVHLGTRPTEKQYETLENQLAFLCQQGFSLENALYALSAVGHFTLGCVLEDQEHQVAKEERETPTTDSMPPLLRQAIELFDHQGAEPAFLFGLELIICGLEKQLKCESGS", "assay": "SEAP reporter assay, CHO-TWIN clones transfected with pMF111 (PhCMV*-1-SEAP)", "format": "cell-based", "conditions": "CHO-TWIN1108 + pMF111; for SEAP Production (%): crossregulation", "source_text": "(§1) pTWIN contains both PIT and tTA in a PSV40 -driven dicistronic configuration. For construction of pTWIN, PIT was first transferred from pMF156 as an EcoRI/HindIII fragment to the corresponding sites of pSBC-1 (EcoRI/HindIII; resulting in pMF167) before the PIT expression unit could be fused to the tTA expression unit contained on pSBC2-tTA (Fussenegger et al., 1997, supra) via SspI/NotI sites. Thus, pTWIN contains the dicistronic PSV40 -PIT-IRES-tTA-pA expression cassette.\n(§2) Chinese hamster ovary cells (CHO-K1, ATCC: CCL 61), Baby hamster kidney cells (BHK-21, ATCC: CRL-8544), and HeLa cells (ATCC: CRL-7923) as well as stable cell lines CHO-PIT1, CHO-PIT2, CHO-TWIN195, CHO-TWIN1108 and CHO-PIT1-SEAP were cultured as described before (Fussenegger et al., 1998, Nat. Biotechnol. 16,468-472) in the presence of appropriate antibiotics: G418 400 μg/ml; zeocin 100 μg/ml. Optimized CaPO4 protocols were used for high efficiency transient transfection of all cell lines (id). Transient transfected cells were routinely analyzed after 48 h for GFP or SEAP expression using fluorescence microscopy and p-nitrophenolphosphate-based light absorbance timecourse, respectively, as described before (Fussenegger et al., 1998, Nat. Biotechnol. 16, 468-472; Berger et al., 1988, Gene 66, 1-10 b). For construction of stable CHO-PIT and CHO-TWIN cell lines, CHO-K1 was cotransfected either with pMF156 or pTWIN1 and pSV2neo carrying the G418 resistance gene. CHO-PIT1-SEAP was constructed by cotransfection of pMF172 and pZeoSV2 (Invitrogen). For assessment of dose-response characteristics of PPIR -regulated gene expression, CHO-PIT1-SEAP were cultured at cell densities of 150,000/ml for 48 at various PI concentrations. The mixed populations were cloned using FACS-mediated single-cell-sorting (FACStar^Plus; Beckton Dickinson). Gel retardation assay were performed as described (Salah-Bey et al., 1995, supra) using Pip purified from an overproducing strain of E. coli. Pip (0.02 pmol) was titrated with a range of antibiotic concentrations in a reaction volume of 20 μl. Protein solutions were pre-incubated at room temperature for 15 min. in the absence or presence of PI or its derivative quinupristin in a buffer containing 10 mM Tris (pH 7.8), 10 mM MgCl2, 300 mM NaCl, 2 mM DTT and 10% glycerol. An EcoRI-HindII PPTR fragment (0.02 pmol) containing three Pip binding sites (radiolabelled using α-^32 P)dATP was added and incubated for 15 min. To minimize nonspecific protein binding and increase protein stability, 2 μg of poly dIdC and 20 μg BSA were included in the incubation mix. Protein-DNA complexes were separated on 5% polyacrylamide,TBE gels and visualized by autoradiography.\n(§3) CHO-TWIN195 and CHO-TWIN1108 were transfected under identical conditions with the isogenic plasmids containing the SEAP gene under control of the tTA-activated promoter PhCMV*-1 (pMF111) or the PIT-activated promoter PPIR (pMF172). Transfected cells were grown for 48 h in the presence or absence of either antibiotic prior to assay of SEAP activity.\n(§4) Table 6: Comparison of the regulation performance of streptogramin- (PI and virginiamycin; VIR) and tetracycline-based gene regulation systems. The two cell clones CHO-TWIN195 and CHO-TWIN1108 containing both pristinamycin- and tetracycline-dependent transactivators were transfected with either the streptogramin-responsive or the TET-responsive SEAP reporter plasmids pMF172 (PPIR -SEAP) and pMF111 (PhCMV*-1 -SEAP), respectively, and the relative SEAP production was assessed. SEAP production values are normalized by SEAP activities under the antibiotic-free, active promoter conditions as follows: pMF172 in CHO-TWIN195:1.7 mU/ml; in CHO-TWIN1108 : 1.8 mU/ml. pMF111 in CHO-TWIN195 : 18.6 mU/ml; in CHO-TWIN1108 : 19.2 mU/ml.\n(§5) Table 7: Compatibility of the streptogramin- and tetracycline-based gene regulation systems. Crossregulation of pristinamycin (PI) and the tetracyclines doxycycline (DOX) and tetracycline (TET). […]"}, "PIT/PPIR system": {"target": "T2, PIT/PPIR system (Streptomyces coelicolor, UniProt Q9ADN3)", "T2 construct": "pMF156/pTWIN in CHO cells, PPIR-SEAP or GFP reporter", "T2 sequence (Q9ADN3 1-252)": "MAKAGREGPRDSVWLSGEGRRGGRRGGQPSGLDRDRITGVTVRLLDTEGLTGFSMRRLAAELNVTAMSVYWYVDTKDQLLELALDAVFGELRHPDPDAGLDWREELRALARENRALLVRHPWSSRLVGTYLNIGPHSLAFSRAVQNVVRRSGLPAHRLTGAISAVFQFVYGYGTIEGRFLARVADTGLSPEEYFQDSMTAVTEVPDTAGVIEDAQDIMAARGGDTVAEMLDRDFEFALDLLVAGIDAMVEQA", "assay": "SEAP reporter assay, CHO-TWIN clones transfected with pMF172 (PPIR-SEAP)", "format": "cell-based", "conditions": "for SEAP Production (%): 48 h, no inducer = 100", "source_text": "as §1, §2, §3, §4, §5"}},
  "data": [
    {"substance": "pristinamycin I [PI]", "values": [
      {"measurement": "Effect on expression from the TET-responsive system", "setting": "[1]", "result": "no effect"},
      {"measurement": "SEAP Production (%)", "setting": "[1]; 2 μg/ml", "result": "94.8 ± 5.3", "unit": "%"},
      {"measurement": "SEAP Production (%)", "setting": "[1]; 10 μg/ml, 2880 min", "result": "92.4 ± 7.9", "unit": "%"},
      {"measurement": "Induction factor (IF; ratio of maximal expression level to antibiotic-repressed expression level)", "setting": "PIT/PPIR system; CHO-TWIN195 + pMF172", "result": 12},
      {"measurement": "SEAP Production (%)", "setting": "PIT/PPIR system; CHO-TWIN195 + pMF172", "result": "8.84 ± 0.01", "unit": "%"},
      {"measurement": "Induction factor (IF; ratio of maximal expression level to antibiotic-repressed expression level)", "setting": "PIT/PPIR system; CHO-TWIN1108 + pMF172", "result": 45},
      {"measurement": "SEAP Production (%)", "setting": "PIT/PPIR system; CHO-TWIN1108 + pMF172", "result": "2.2 ± 0.4", "unit": "%"}
    ]}
  ]
}
